Results as given in ChEMBL document CHEMBL1154613, “Antagonists of the calcium receptor. 2. Amino alcohol-based parathyroid hormone secretagogues” (J Med Chem, 2009).

Key:
[1] = Half life in iv and po dosed rat; assay type: ADME, organism-based; conditions: in vivo
[2] = Half life in iv and po dosed dog; assay type: ADME, organism-based, Canis lupus familiaris; conditions: in vivo
Rattus norvegicus [3] = experiment: Oral bioavailability in rat assessed as (R)-3-(3-cyano-4-(2-hydroxy-3-(2-methyl-1-(naphthalen-2-yl)propan-2-ylamino)propoxy)phenyl)propanoic acid levels; assay type: ADME, organism-based; conditions: in vivo
Canis familiaris [4] = experiment: Oral bioavailability in dog assessed as (R)-3-(3-cyano-4-(2-hydroxy-3-(2-methyl-1-(naphthalen-2-yl)propan-2-ylamino)propoxy)phenyl)propanoic acid levels; assay type: ADME, organism-based, Canis lupus familiaris; conditions: in vivo
Canis familiaris [5] = experiment: Tmax in dog assessed as (R)-3-(3-cyano-4-(2-hydroxy-3-(2-methyl-1-(naphthalen-2-yl)propan-2-ylamino)propoxy)phenyl)propanoic acid levels at 23.4 mg/kg, po; assay type: ADME, organism-based, Canis lupus familiaris; parameters: dose 23.4 mg/kg, route oral; conditions: in vivo
Canis familiaris [6] = experiment: Cmax in dog assessed as (R)-3-(3-cyano-4-(2-hydroxy-3-(2-methyl-1-(naphthalen-2-yl)propan-2-ylamino)propoxy)phenyl)propanoic acid levels at 23.4 mg/kg, po; assay type: ADME, organism-based, Canis lupus familiaris; parameters: dose 23.4 mg/kg, route oral; conditions: in vivo
[7] = target: Beta-2 adrenergic receptor (Homo sapiens, UniProt P07550); experiment: Inhibition of beta2 adrenergic receptor
[8] = Mean residence time in iv and po dosed rat; assay type: ADME, organism-based; conditions: in vivo
[9] = Mean residence time in iv and po dosed dog; assay type: ADME, organism-based, Canis lupus familiaris; conditions: in vivo
[10] = target: T1, Extracellular calcium-sensing receptor (Homo sapiens, UniProt P41180); experiment: Antagonist activity at human calcium receptor expressed in HEK293 4.0-7 cells assessed as inhibition of intracellular calcium release by FLIPR assay; assay type: functional, cell-based
T1 sequence (P41180 whole entry): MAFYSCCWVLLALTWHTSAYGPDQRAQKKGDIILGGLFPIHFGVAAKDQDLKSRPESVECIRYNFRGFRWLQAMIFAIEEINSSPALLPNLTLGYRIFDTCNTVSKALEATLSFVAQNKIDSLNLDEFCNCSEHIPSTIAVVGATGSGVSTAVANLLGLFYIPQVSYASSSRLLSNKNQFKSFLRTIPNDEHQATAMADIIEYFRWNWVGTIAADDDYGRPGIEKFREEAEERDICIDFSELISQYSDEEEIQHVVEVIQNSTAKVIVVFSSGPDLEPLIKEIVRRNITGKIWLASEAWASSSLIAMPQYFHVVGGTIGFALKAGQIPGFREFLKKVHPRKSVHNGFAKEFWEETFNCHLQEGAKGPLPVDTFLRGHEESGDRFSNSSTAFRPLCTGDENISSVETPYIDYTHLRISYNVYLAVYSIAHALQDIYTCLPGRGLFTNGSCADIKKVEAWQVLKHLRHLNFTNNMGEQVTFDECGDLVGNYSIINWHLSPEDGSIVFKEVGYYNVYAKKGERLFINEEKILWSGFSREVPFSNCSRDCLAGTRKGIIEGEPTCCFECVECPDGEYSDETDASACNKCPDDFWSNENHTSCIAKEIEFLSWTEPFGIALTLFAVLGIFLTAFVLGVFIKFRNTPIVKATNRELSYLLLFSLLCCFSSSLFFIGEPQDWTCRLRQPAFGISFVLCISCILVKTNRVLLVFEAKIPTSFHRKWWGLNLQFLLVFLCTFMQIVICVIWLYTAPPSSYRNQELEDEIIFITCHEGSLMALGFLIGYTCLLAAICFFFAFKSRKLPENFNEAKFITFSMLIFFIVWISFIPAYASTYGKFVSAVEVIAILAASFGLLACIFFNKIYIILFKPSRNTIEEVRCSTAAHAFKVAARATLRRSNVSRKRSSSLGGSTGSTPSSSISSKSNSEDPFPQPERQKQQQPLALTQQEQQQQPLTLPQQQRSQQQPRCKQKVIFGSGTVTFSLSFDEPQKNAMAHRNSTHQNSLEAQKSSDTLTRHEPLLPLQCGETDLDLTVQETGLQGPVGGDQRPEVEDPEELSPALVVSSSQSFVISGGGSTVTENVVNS

[11] = target: T1, Extracellular calcium-sensing receptor; experiment: Displacement of [3H](2-(2-hydroxyphenyl)-6-methyl-5-(2-methylpropyl)-3-(2-phenylethyl)-4(3H)-pyrimidinone) from human calcium receptor expressed in human HEK293 4.0-7 cells by liquid scintillation counting; assay type: cell-based
[12] = target: Sodium-dependent serotonin transporter (Homo sapiens, UniProt P31645); experiment: Inhibition of SERT
[13] = target: Sodium-dependent noradrenaline transporter (Homo sapiens, UniProt P23975); experiment: Inhibition of NET
[14] = target: Sodium-dependent dopamine transporter (Homo sapiens, UniProt Q01959); experiment: Inhibition of DAT
Cytochrome P450 2D6 = Cytochrome P450 2D6 (Homo sapiens, UniProt P10635); experiment: Inhibition of CYP2D6; assay type: ADME
[15] = Clearance in iv and po dosed rat; assay type: ADME, organism-based; conditions: in vivo
[16] = Volume of distribution at steady state in iv and po dosed rat; assay type: ADME, organism-based; conditions: in vivo, read-out: Vdss
[17] = Oral bioavailability in rat; assay type: ADME, organism-based; conditions: in vivo
[18] = target: Voltage-gated inwardly rectifying potassium channel KCNH2 (Homo sapiens, UniProt Q12809)
[19] = Clearance in iv and po dosed dog; assay type: ADME, organism-based, Canis lupus familiaris; conditions: in vivo
[20] = Volume of distribution at steady state in iv and po dosed dog; assay type: ADME, organism-based, Canis lupus familiaris; conditions: in vivo, read-out: Vdss
Rattus norvegicus [21] = experiment: Metabolic stability in intraportal dosed rat assessed as hepatic first pass; assay type: ADME, organism-based; conditions: in vivo, other
Canis familiaris [22] = experiment: Metabolic stability in intraportal dosed dog assessed as hepatic first pass; assay type: ADME, organism-based, Canis lupus familiaris; conditions: in vivo, other

Sequence of Beta-2 adrenergic receptor (P07550 whole entry): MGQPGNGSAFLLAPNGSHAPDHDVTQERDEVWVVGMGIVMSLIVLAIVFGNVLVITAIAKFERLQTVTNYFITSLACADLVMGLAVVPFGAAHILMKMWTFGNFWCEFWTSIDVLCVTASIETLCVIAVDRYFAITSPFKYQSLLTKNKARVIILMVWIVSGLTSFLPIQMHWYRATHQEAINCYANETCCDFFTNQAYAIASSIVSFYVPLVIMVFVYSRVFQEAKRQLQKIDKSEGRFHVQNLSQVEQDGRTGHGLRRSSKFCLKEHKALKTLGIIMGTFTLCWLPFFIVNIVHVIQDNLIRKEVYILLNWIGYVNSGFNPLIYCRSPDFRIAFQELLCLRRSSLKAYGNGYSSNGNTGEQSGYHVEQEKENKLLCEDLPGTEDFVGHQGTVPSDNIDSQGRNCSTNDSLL
Sequence of Cytochrome P450 2D6 (P10635 whole entry): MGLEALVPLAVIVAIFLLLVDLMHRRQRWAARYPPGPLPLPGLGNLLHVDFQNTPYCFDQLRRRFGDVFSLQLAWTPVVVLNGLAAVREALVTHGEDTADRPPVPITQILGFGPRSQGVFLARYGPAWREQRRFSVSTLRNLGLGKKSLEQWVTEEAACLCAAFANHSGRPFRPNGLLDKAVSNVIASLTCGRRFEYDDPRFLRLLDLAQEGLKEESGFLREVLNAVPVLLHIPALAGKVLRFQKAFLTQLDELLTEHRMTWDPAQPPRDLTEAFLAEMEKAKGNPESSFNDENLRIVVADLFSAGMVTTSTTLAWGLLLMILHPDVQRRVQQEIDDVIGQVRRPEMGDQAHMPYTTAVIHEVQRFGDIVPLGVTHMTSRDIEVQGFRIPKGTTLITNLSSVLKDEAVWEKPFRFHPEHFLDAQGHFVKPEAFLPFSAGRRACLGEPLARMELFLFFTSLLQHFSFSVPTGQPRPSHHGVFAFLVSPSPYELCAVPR
Sequence of Sodium-dependent dopamine transporter (Q01959 whole entry): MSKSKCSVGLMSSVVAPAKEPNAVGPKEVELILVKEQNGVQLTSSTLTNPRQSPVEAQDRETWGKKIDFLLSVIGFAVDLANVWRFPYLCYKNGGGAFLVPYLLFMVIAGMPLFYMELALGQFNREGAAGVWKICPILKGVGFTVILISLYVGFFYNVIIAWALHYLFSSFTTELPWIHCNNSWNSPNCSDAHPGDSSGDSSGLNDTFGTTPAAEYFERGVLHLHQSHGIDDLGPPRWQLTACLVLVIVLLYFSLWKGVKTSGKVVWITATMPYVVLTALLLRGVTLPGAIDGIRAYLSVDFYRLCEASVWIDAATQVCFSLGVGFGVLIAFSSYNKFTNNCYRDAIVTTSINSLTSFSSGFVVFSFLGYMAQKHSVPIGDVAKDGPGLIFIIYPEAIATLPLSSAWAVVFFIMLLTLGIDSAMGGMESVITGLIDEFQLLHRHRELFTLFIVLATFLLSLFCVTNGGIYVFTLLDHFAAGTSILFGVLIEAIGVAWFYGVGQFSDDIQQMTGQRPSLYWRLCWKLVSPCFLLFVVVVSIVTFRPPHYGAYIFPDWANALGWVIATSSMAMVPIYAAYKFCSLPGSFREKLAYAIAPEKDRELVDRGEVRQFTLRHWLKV
Sequence of Voltage-gated inwardly rectifying potassium channel KCNH2 (Q12809 whole entry): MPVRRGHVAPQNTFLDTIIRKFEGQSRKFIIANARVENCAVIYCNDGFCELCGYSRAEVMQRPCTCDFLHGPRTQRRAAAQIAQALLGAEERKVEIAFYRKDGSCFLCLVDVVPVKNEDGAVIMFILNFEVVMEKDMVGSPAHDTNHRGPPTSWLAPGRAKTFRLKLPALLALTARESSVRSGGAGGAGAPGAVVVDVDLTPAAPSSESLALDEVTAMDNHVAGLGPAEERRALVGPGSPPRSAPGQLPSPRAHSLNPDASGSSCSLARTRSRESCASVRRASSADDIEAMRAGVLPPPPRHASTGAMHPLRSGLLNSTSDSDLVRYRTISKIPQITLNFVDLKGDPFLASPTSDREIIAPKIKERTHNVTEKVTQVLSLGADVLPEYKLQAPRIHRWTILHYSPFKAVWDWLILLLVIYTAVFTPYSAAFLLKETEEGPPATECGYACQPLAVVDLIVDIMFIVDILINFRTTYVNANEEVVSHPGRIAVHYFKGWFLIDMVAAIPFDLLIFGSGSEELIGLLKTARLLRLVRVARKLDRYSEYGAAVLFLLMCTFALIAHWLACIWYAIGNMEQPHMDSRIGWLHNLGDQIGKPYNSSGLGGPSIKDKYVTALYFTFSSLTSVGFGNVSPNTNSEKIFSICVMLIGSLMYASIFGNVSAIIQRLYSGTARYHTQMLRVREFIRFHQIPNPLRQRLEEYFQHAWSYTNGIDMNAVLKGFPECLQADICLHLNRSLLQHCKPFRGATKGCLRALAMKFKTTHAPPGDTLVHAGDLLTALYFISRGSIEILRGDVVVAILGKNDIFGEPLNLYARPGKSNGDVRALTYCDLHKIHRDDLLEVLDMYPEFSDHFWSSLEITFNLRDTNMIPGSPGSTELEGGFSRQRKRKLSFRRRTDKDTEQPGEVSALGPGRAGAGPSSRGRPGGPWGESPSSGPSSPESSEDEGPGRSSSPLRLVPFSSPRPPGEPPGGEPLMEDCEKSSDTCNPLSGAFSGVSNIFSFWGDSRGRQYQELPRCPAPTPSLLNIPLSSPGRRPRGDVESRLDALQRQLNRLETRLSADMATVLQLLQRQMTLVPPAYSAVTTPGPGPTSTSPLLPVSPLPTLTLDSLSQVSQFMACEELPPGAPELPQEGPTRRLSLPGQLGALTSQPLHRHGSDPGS
Sequence of Sodium-dependent serotonin transporter (P31645 whole entry): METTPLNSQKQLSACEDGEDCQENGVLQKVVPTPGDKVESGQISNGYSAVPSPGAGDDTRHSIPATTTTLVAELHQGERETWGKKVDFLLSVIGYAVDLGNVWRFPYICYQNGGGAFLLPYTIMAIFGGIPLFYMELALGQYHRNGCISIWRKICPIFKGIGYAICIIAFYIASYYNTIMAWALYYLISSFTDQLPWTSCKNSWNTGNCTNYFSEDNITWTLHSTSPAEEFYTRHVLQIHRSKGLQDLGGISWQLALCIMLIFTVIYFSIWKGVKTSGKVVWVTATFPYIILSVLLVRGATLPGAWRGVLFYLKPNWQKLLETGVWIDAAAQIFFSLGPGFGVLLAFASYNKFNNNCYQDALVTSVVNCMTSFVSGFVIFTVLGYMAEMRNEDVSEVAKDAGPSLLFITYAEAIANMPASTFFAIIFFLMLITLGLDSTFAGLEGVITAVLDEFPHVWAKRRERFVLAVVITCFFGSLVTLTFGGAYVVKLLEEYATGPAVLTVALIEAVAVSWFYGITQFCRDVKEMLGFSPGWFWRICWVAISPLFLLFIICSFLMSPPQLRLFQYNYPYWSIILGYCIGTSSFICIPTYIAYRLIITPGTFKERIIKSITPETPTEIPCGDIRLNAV
Sequence of Sodium-dependent noradrenaline transporter (P23975 whole entry): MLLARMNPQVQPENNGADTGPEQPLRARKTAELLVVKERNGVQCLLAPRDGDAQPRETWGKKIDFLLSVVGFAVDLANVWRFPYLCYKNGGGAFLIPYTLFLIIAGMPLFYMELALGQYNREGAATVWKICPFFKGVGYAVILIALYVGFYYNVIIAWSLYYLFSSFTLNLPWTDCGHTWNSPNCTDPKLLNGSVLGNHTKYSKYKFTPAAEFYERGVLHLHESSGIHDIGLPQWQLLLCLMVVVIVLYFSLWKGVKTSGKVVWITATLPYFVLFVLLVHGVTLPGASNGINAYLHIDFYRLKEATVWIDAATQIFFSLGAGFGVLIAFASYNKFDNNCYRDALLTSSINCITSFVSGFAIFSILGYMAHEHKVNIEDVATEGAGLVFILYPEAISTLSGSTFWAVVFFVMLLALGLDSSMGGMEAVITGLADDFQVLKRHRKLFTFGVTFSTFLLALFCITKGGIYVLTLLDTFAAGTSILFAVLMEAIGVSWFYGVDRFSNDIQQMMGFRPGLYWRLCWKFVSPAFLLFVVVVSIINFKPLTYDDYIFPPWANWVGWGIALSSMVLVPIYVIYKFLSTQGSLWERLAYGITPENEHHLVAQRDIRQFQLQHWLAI

SMILES | half-life [1] [min] | half-life [2] [min] | IC50 [7] [nM] | MRT [8] [min] | MRT [9] [min] | IC50 [10] [nM] | IC50 [11] [nM] | IC50 [12] [nM] | IC50 [13] [nM] | IC50 [14] [nM] | IC50 (Cytochrome P450 2D6) [nM] | clearance [15] [mL/min/kg] | Vd [16] [L/kg] | bioavailability [17] [%] | IC50 [18] [nM] | further results
CC(C)(Cc1ccc2ccccc2c1)NC[C@@H](O)COc1cccc(Cl)c1C#N | 126 |  | 4300 | 150 |  | 58 | 3 |  |  |  | 45 | 73.8 | 11 | 11.4 | 3 | 
COc1ccc(CC(C)(C)NC[C@H](O)COc2cccc3[nH]c(=O)[nH]c23)cc1 |  |  | 1.3 |  |  | 11000 | 31800 |  |  |  | 1260 |  |  |  | 11.8 | 
CC(C)(Cc1ccc2ccccc2c1)NC[C@@H](O)COc1ccc(CCC(=O)O)cc1 | 24 |  | > 30000 | 18 |  | > 25000 | 4800 | 68 | 16000 | 3700 | 52000 | 118 | 2.1 | 4 | 38.5 | 

More lines, main results first:

half-life [1] [min] | half-life [2] [min] | IC50 [7] [nM] | MRT [8] [min] | MRT [9] [min] | IC50 [10] [nM] | IC50 [11] [nM] | IC50 [12] [nM] | IC50 [13] [nM] | IC50 [14] [nM] | IC50 (Cytochrome P450 2D6) [nM] | clearance [15] [mL/min/kg] | Vd [16] [L/kg] | bioavailability [17] [%] | SMILES | IC50 [18] [nM] | further results
52.8 | 73.8 | 14000 | 42 | 82.2 | 34 | 3 | 78 | 37 | 59 | 3000 |  |  |  | CCOC(=O)CCc1ccc(OC[C@H](O)CNC(C)(C)Cc2ccc3ccccc3c2)c(C#N)c1.Cl |  | F (Rattus norvegicus [3]): 9.5%; F (Canis familiaris [4]): 9.1%; Tmax (Canis familiaris [5]): 30 min; Cmax (Canis familiaris [6]): 597 ng/mL
 |  |  |  |  | 18 | 3 | 3 | 3 | 2 | 100 |  |  |  | CC(C)(Cc1ccc2ccccc2c1)NC[C@@H](O)COc1ccccc1C#N | 3.2 | 
33.6 | 73.8 | > 30000 | 19.2 | 51 | 200 | 22 | 23 | 5400 | 2800 | > 50000 | 63.6 | 1.18 | 0.29 | CC(C)(Cc1ccc2ccccc2c1)NC[C@@H](O)COc1ccc(CCC(=O)O)cc1C#N | 32.7 | clearance [19]: 15.4 mL/min/kg; Vd [20]: 0.78 L/kg; Activity (Rattus norvegicus [21]): 68%; Activity (Canis familiaris [22]): 90%
